Results from publication PMC11277004, “Di- and Triselenoesters—Promising Drug Candidates for the Future Therapy of Triple-Negative Breast Cancer” (International Journal of Molecular Sciences, 2024).

Experiments:
[1] = system: MCF-10A normal human breast epithelial cells; assay: DNA biosynthesis assay ([3H]-thymidine incorporation), MCF-10A; type: cell-based; conditions: Homo sapiens, 24 h, read-out: IC50, DNA biosynthesis
Experimental: (§1) The study of the antiproliferative properties (intensity of [^3H]-thymidine incorporation into cell DNA) of the tested derivatives against tested cell lines (MCF-7, MDA-MB-231, MCF-10A) was performed after 24 h incubation with varied concentrations of the tested compounds in the medium (0.5–5 µM) in 6-well plates (baseline seeding density: 5 × 10^5 cells/well). After 24 h the medium was removed, the cells were washed with PBS (Corning, Kennebunk, ME, USA), and a fresh medium was added. After that, the cells were treated with 0.5 µCi of tritium-labeled thymidine (specific activity 7 Ci/mmol) by incubating them with this compound for 4 h under the same conditions as the cell culture. In the first step, the medium was removed, and the cell monolayer was washed twice with 1 mL of 0.05 M Tris-HCl buffer pH 7.4 containing 0.11 M NaCl. To denature proteins, the cells were washed twice with 1 mL of 5% trichloroacetic acid (TCA) solution. Finally, cell lysis was performed by adding 1 mL of 0.1 M sodium hydroxide (NaOH) solution containing 1% sodium dodecyl sulfate (SDS) to each well. After five minutes, the obtained cell lysates were transferred to scintillation vials with 2 mL of scintillation fluid added to them beforehand. Radioactivity was measured using the Scintillation Counter 1900 TR, TRI-CARB (Packard, Perkin Elmer, Inc., San Jose, CA, USA). The intensity of DNA biosynthesis in the analyzed cells was expressed in terms of dpm/well. The result of the radioactivity measurement in the control cells (without the addition of tested compounds) was taken as 100%, while the values of cells incubated with the tested compounds were presented as a percentage of the control value.

[2] = system: MCF-7 breast cancer cells; assay: MTT cytotoxicity test, MCF-7; type: cell-based, human; conditions: Homo sapiens, MCF7; MCF-7, 24 h incubation; read-out: IC50, cell viability (MTT)
Experimental: (§2) MCF-7 and MDA-MB-231 human breast cancer cell lines, as well as MCF-10A normal human breast epithelial cells, were acquired from the American Type Culture Collection (ATCC, Manassas, VA, USA). The characteristics of the breast cancer cell lines used in this study are compared in Table 1. MCF-7 and MDA-MB-231 cells were cultured in Dulbecco’s modified Eagle’s medium (Gibco, San Diego, CA, USA), while MCF-10A cells were cultured in the mammary epithelial cell growth medium with the following supplements: BPE, hEGF, insulin, hydrocortisone, GA-1000 (Lonza, Basel, Switzerland). All media were complemented by 10% of fetal bovine serum (FBS) and 1% of the following antibiotics: penicillin and streptomycin (both Gibco, San Diego, CA, USA). The cells were maintained in an incubator that provides the optimal growth conditions for the cell culture: 5% CO2, 37 °C, and humidity in a range of 90–95%. The cells were cultured in 100 mm plates (Sarstedt, Newton, NC, USA). Subsequently, after obtaining a subconfluent cell culture, the cells were detached with 0.05% trypsin with 0.02% EDTA (Gibco, San Diego, CA, USA). […] In this study, cells that obtained 80% confluence were used. The MTT assay was used to determine the cytotoxic effects of the compounds in the study on MCF-7 and MDA-MB-231 breast cancer cells as well as MCF-10A normal human breast epithelial cells based on Carmichael’s method. […] After this time, the medium was removed, and the cell monolayer was washed with warm phosphate-buffered saline (PBS) without calcium and magnesium. In the next step, PBS and MTT solution in PBS (5 mg/mL) were added to each well to obtain a final MTT concentration of 0.5 mg/mL, and then the cells were incubated for 4 h (37 °C temperature, 5% CO2, 90–95% humidity). After the incubation period, the contents of each well were removed, 1 mL of DMSO was added to dissolve the formazan, and then the plate with the added DMSO was mixed for 5–10 min on a microplate shaker (Boeco, Hamburg, Germany). Then, 10 µL of Sorensen’s glycine buffer (a solution of 0.1 M glycine and 0.1 M sodium chloride adjusted to pH 10.5 with 0.1 M sodium hydroxide) was added. The absorbance of the obtained solution was immediately measured at a wavelength of λ = 570 nm using a Thermo Scientific Evolution 201 UV–VIS spectrophotometer (Thermo Fisher Scientific, Waltham, MA, USA). The absorbance result obtained in the control cells (without the addition of the tested compounds) was taken as 100%, while the viability of cells incubated with the tested compounds was presented as a percentage of the control value.

[3] = system: MDA-MB-231 triple-negative breast cancer cells; assay: DNA biosynthesis assay ([3H]-thymidine incorporation), MDA-MB-231; type: cell-based, human; conditions: Homo sapiens, MDA-MB-231, 24 h, read-out: IC50, DNA biosynthesis
Experimental: as §1

[4] = system: MCF-7 breast cancer cells; assay: DNA biosynthesis assay ([3H]-thymidine incorporation), MCF-7; type: cell-based, human; conditions: Homo sapiens, MCF7, 24 h, read-out: IC50, DNA biosynthesis
Experimental: as §1

[5] = system: MDA-MB-231 triple-negative breast cancer cells; assay: MTT cytotoxicity test, MDA-MB-231; type: cell-based, human
Experimental: as §2

[6] = system: MCF-10A normal human breast epithelial cells; assay: MTT cytotoxicity test, MCF-10A; type: cell-based; conditions: Homo sapiens, 24 h incubation, read-out: IC50, cell viability (MTT)
Experimental: as §2

[7] = system: MCF-7, MDA-MB-231 and MCF-10A cells; assay: Viability (MTT) and DNA biosynthesis, summary statements over the tested cell lines; type: cell-based, human; conditions: DNA biosynthesis, vs EDAG-1 and EDAG-8
Experimental: The MTT assay was used to determine the cytotoxic effects of the compounds in the study on MCF-7 and MDA-MB-231 breast cancer cells as well as MCF-10A normal human breast epithelial cells based on Carmichael’s method. All cultured cell lines were treated with varied concentrations of the tested compounds in the medium (0.5–5 µM) and incubated for 24 h in an incubator providing optimal conditions for cell culture growth (37 °C temperature, 5% CO2, and 90–95% humidity) in 6-well plates (baseline seeding density: 5 × 10^5 cells/well). After this time, the medium was removed, and the cell monolayer was washed with warm phosphate-buffered saline (PBS) without calcium and magnesium. In the next step, PBS and MTT solution in PBS (5 mg/mL) were added to each well to obtain a final MTT concentration of 0.5 mg/mL, and then the cells were incubated for 4 h (37 °C temperature, 5% CO2, 90–95% humidity). After the incubation period, the contents of each well were removed, 1 mL of DMSO was added to dissolve the formazan, and then the plate with the added DMSO was mixed for 5–10 min on a microplate shaker (Boeco, Hamburg, Germany). Then, 10 µL of Sorensen’s glycine buffer (a solution of 0.1 M glycine and 0.1 M sodium chloride adjusted to pH 10.5 with 0.1 M sodium hydroxide) was added. The absorbance of the obtained solution was immediately measured at a wavelength of λ = 570 nm using a Thermo Scientific Evolution 201 UV–VIS spectrophotometer (Thermo Fisher Scientific, Waltham, MA, USA). The absorbance result obtained in the control cells (without the addition of the tested compounds) was taken as 100%, while the viability of cells incubated with the tested compounds was presented as a percentage of the control value.
The study of the antiproliferative properties (intensity of [^3H]-thymidine incorporation into cell DNA) of the tested derivatives against tested cell lines (MCF-7, MDA-MB-231, MCF-10A) was performed after 24 h incubation with varied concentrations of the tested compounds in the medium (0.5–5 µM) in 6-well plates (baseline seeding density: 5 × 10^5 cells/well). After 24 h the medium was removed, the cells were washed with PBS (Corning, Kennebunk, ME, USA), and a fresh medium was added. […] Radioactivity was measured using the Scintillation Counter 1900 TR, TRI-CARB (Packard, Perkin Elmer, Inc., San Jose, CA, USA). The intensity of DNA biosynthesis in the analyzed cells was expressed in terms of dpm/well. The result of the radioactivity measurement in the control cells (without the addition of tested compounds) was taken as 100%, while the values of cells incubated with the tested compounds were presented as a percentage of the control value.

[8] = system: human breast cancer cells MCF-7 and MDA-MB-231; parameters: method as in PMID 36077839; conditions: 3 µM; cited from earlier work

| Structure (SMILES) | IC50 [1] [nM] | IC50 [2] [nM] | IC50 [3] [nM] | IC50 [4] [nM] | fold weaker cytotoxic activity than the most active compounds ([5]; MDA-MB-231, MTT, vs EDAG-8/EDAG-1) [fold] | IC50 [6] [nM] | fold weaker antiproliferative activity than the most active derivatives [7] | cells in which the apoptotic process was triggered [8] | IC50 ([5]; Homo sapiens, MDA-MB-231, 24 h incubation, read-out: IC50, cell viability (MTT)) [nM] |
| --- | --- | --- | --- | --- | --- | --- | --- | --- | --- |
| N#CC[Se]C(=O)c1cc(C(=O)[Se]CC#N)cc(C(=O)[Se]CC#N)c1 [EDAG-10, Se,Se,Se-tris-(cyanomethyl) benzene-1,3,5-tris-(carboxyselenoate)] | 1600 ± 50 | 2600 ± 30 | 1560 ± 80 | 1950 ± 110 | ~4 | 4180 ± 290 | 2–3 fold | – | – |
| CC(=O)C[Se]C(=O)c1ccc(Cl)cc1 [EDA-71] | – | – | – | – | – | – | – | over 50% | – |
| N#CC[Se]C(=O)c1ccc(C(=O)[Se]CC#N)cc1 [EDAG-7, Se,Se-bis(cyanomethyl) benzene-1,4-bis(carboselenoate)] | 2330 ± 20 | 3150 ± 210 | 2040 ± 160 | 1810 ± 110 | – | 4640 ± 240 | 2–3 fold | – | > 5000 |
